Target: HPK1 (Homo sapiens (Human), UniProt Q92918, S171E/T165E)
Assay: HPK1-FL HTRF Enzymatic Assay (HTRF)
Assay type: biochemical
Conditions: HPK full length T165E S171E 0.125 nM, ATP 1 mM, Biotin-SLP76 100 nM, read-out: HPK1 Ki (nM), H = HTRF
Outline: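 Ki derived from % activity calculated from the TR-FRET 665/620 ratio, using Eu-anti-pSLP76 and SA-XL665 detection added for 60 min. Reaction: compound preincubated 30 min with full-length double-mutant HPK1, then 60 min with Biotin-SLP-76 and 1 mM ATP, pH 7.5 HEPES buffer.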

Sequence of HPK1 (Q92918 whole entry T165E/S171E): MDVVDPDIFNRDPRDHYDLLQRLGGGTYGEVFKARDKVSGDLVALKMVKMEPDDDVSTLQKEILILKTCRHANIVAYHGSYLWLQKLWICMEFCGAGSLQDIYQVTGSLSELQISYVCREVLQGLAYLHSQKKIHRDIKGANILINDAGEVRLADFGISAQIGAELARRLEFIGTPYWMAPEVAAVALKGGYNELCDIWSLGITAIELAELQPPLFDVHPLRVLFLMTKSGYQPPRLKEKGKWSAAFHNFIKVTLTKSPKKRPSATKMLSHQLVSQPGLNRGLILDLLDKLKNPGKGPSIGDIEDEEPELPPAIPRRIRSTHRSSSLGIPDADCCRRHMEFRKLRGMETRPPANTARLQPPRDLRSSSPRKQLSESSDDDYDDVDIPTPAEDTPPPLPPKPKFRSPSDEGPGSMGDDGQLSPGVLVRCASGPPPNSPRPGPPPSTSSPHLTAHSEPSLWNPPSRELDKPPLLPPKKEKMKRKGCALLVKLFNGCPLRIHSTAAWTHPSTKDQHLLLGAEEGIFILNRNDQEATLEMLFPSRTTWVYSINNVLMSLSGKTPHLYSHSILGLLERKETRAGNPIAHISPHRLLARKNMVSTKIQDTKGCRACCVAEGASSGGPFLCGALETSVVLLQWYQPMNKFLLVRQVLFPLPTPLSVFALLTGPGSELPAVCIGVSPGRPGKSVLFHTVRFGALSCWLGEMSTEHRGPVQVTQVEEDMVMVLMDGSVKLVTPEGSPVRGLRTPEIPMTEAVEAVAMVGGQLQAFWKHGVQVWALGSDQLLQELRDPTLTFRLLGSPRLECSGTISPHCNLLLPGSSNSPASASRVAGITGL

Ki | Compound
3.4 nM | Cc1ccncc1-c1cc2cc(Nc3cc4n(n3)CC3=NOC(C)(C)N3CC4)ncc2cc1F [Compound 134, N-(7-fluoro-6-(4-methylpyridin-3-yl)isoquinolin-3-yl)-3,3-dimethyl-5,6-dihydro-3H,11H-[1,2,4]oxadiazolo[4,3-a]pyrazolo[1,5-d][1,4]diazepin-8-amine]
0.017 nM | COCCN1CCc2cc(Nc3cc4cc(-c5cncc(N)c5C)c(F)cc4cn3)nn2CC1=O [Compound 156, 2-((6-(5-amino-4-methylpyridin-3-yl)-7-fluoroisoquinolin-3-yl)amino)-6-(2-methoxyethyl)-5,6-dihydro-4H-pyrazolo[1,5-d][1,4]diazepin-7(8H)-one]
97 nM | Cc1c(-c2cc3cc(Nc4cc5n(n4)CC(=O)N(C)CC5)ncc3cc2F)cnc(=O)n1C [Compound 203, 2-((6-(1,6-dimethyl-2-oxo-1,2-dihydropyrimidin-5-yl)-7-fluoroisoquinolin-3-yl)amino)-6-methyl-5,6-dihydro-4H-pyrazolo[1,5-d][1,4]diazepin-7(8H)-one]
2.2 nM | COc1cc(C)c(-c2cc3cc(Nc4cc5n(n4)CC(=O)N(C)CC5)ncc3cc2F)cn1 [Compound 137, 2-((7-fluoro-6-(6-methoxy-4-methylpyridin-3-yl)isoquinolin-3-yl)amino)-6-methyl-5,6-dihydro-4H-pyrazolo[1,5-d][1,4]diazepin-7(8H)-one]
0.83 nM | Cc1c(-c2cc3cc(Nc4cc5n(n4)CC(=O)N(C)CC5)ncc3cc2F)cnnc1N [Compound 194, 2-((6-(6-amino-5-methylpyridazin-4-yl)-7-fluoroisoquinolin-3-yl)amino)-6-methyl-5,6-dihydro-4H-pyrazolo[1,5-d][1,4]diazepin-7(8H)-one]
0.014 nM | Cc1c(-c2cc3cc(Nc4cc5n(n4)CC(=O)N([C@@H](C)C#N)CC5)ncc3cc2F)cnc2c1NCCO2 (single isomer, unassigned) [Compound 147a]
0.013 nM | Cc1c(N)cncc1-c1cc2cc(Nc3cc4n(n3)CC(=O)N(C(C)(C)C)CC4F)ncc2cc1F (single isomer, unassigned) [Compound 167b]
23.7 nM | Cc1cc(S(C)(=N)=O)ncc1-c1cc2cc(Nc3cc4n(n3)CC(=O)N(C)CC4)ncc2cc1F (stereo not shown) [Compound 178, 2-((7-fluoro-6-(4-methyl-6-(S-methylsulfonimidoyl)pyridin-3-yl)isoquinolin-3-yl)amino)-6-methyl-5,6-dihydro-4H-pyrazolo[1,5-d][1,4]diazepin-7(8H)-one]
0.43 nM | Cc1c(-c2cc3cc(Nc4cc5n(n4)CC(=O)N(C)CC5)ncc3cc2F)cnc2c1N(C)CCO2 [Compound 162, 2-((6-(1,8-dimethyl-2,3-dihydro-1H-pyrido[2,3-b][1,4]oxazin-7-yl)-7-fluoroisoquinolin-3-yl)amino)-6-methyl-5,6-dihydro-4H-pyrazolo[1,5-d][1,4]diazepin-7(8H)-one]
0.38 nM | Cc1c(-c2cc(F)c3cnc(Nc4cc5n(n4)CC(=O)N(C)CC5)cc3c2)cnc2c1NCC[C@]2(C)O (single isomer, unassigned) [Compound 231b]
2.3 nM | Cc1c(N)cnnc1-c1cc2cc(Nc3cc4n(n3)CC(=O)N(C)CC4)ncc2cc1F [Compound 216, 2-((6-(5-amino-4-methylpyridazin-3-yl)-7-fluoroisoquinolin-3-yl)amino)-6-methyl-5,6-dihydro-4H-pyrazolo[1,5-d][1,4]diazepin-7(8H)-one]
1.9 nM | Cc1c(-c2cc3cc(Nc4cc5n(n4)CC(=O)N(C)CC5)ncc3cc2F)cnc2c1[C@](C)(O)CCO2 (single isomer, unassigned) [Compound 226b]
127 nM | CN1CCc2cc(Nc3cc4cc(-c5cccc6c5CCNC6)c(F)cc4cn3)nn2CC1=O [Compound 200, 2-((7′-fluoro-1,2,3,4-tetrahydro-[5,6′-biisoquinolin]-3′-yl)amino)-6-methyl-5,6-dihydro-4H-pyrazolo[1,5-d][1,4]diazepin-7(8H)-one]
9 nM | Cc1cc(C2CCCCO2)ncc1-c1cc2cc(Nc3cc4n(n3)CC(=O)N(C)CC4)ncc2cc1F (racemic) [Compound 218, (+/-)-2-((7-fluoro-6-(4-methyl-6-(tetrahydro-2H-pyran-2-yl)pyridin-3-yl)isoquinolin-3-yl)amino)-6-methyl-5,6-dihydro-4H-pyrazolo[1,5-d][1,4]diazepin-7(8H)-one]
446 nM | CN[C@H]1CCc2c(-c3cc4cc(Nc5cc6n(n5)CC(=O)N(C)CC6)ncc4cc3F)cncc21 (single isomer, unassigned) [Compound 228b]
0.5 nM | Cc1c(NC2CNC2)cncc1-c1cc2cc(Nc3cc4n(n3)Cc3nccn3CC4)ncc2cc1F [Compound 179, N-(6-(5-(azetidin-3-ylamino)-4-methylpyridin-3-yl)-7-fluoroisoquinolin-3-yl)-5,6-dihydro-11H-imidazo[1,2-a]pyrazolo[1,5-d][1,4]diazepin-8-amine]
0.013 nM | Cc1c(-c2cc3cc(Nc4cc5n(n4)CC(=O)N(C(C)CO)CC5)ncc3cc2F)cnc2c1NCCO2 (single isomer, unassigned) [Compound 148b]
6.2 nM | CN[C@H]1CCN(c2cc(C)c(-c3cc4cc(Nc5cc6n(n5)CC(=O)N(C)CC6)ncc4cc3F)cn2)C1 (single isomer, unassigned) [Compound 206b]
0.161 nM | Cc1c(-c2cc3cc(Nc4cc5n(n4)CC(=O)NCC5)ncc3cc2F)cnc2c1NCC(F)(F)O2 [Compound 176, 2-((6-(3,3-difluoro-8-methyl-2,3-dihydro-1H-pyrido[2,3-b][1,4]oxazin-7-yl)-7-fluoroisoquinolin-3-yl)amino)-5,6-dihydro-4H-pyrazolo[1,5-d][1,4]diazepin-7(8H)-one]
0.319 nM | Cc1c(-c2cc(F)c3cnc(Nc4cc5n(n4)CC(=O)N(C)CC54CC4)cc3c2)cnc2c1NCC[C@H]2O (single isomer, unassigned) [Compound 237b]
0.013 nM | Cc1c(-c2cc3cc(Nc4cc5n(n4)Cc4nccn4CC5)ncc3cc2F)cnc2c1NCCO2 [Compound 143, N-(7-fluoro-6-(8-methyl-2,3-dihydro-1H-pyrido[2,3-b][1,4]oxazin-7-yl)isoquinolin-3-yl)-5,6-dihydro-11H-imidazo[1,2-a]pyrazolo[1,5-d][1,4]diazepin-8-amine]
1.19 nM | Cc1c(-c2cc3cc(Nc4ccn([C@@H](C)C#N)n4)ncc3cc2F)cnc2c1NCCO2 (single isomer, unassigned) [Compound 109b, 2-(3-((7-fluoro-6-(8-methyl-2,3-dihydro-1H-pyrido[2,3-b][1,4]oxazin-7-yl)isoquinolin-3-yl)amino)-1H-pyrazol-1-yl)propanenitrile]
0.013 nM | Cc1c(-c2cc3cc(Nc4cc5n(n4)CC(=O)N(C)CC54CC4)ncc3cc2F)cnc2c1NCC[C@H]2O (single isomer, unassigned) [Compound 205a]
0.018 nM | Cc1c(-c2cc3cc(Nc4cc5n(n4)CC(=O)N(C(C)C)CC5O)ncc3cc2F)cnc2c1NCCO2 (single isomer, unassigned) [Compound 141b]
0.014 nM | Cc1c(-c2cc3cc(Nc4cc5n(n4)CC(=O)N(C(C)C)CC5)ncc3cc2F)cnc2c1NCCO2 [Compound 116, 2-((7-fluoro-6-(8-methyl-2,3-dihydro-1H-pyrido[2,3-b][1,4]oxazin-7-yl)isoquinolin-3-yl)amino)-6-isopropyl-5,6-dihydro-4H-pyrazolo[1,5-d][1,4]diazepin-7(8H)-one]
